From patent US10377991B2, “Method of producing airway epithelial cells” (KYOTO UNIVERSITY, priority 2015, dated 2019)

Tested on: proximal airway epithelial progenitor cells induced from human iPS cells (201B7)
Assay: Induction of differentiation into ciliated airway epithelial cells in Step 6 three-dimensional culture, qRT-PCR of FOXJ1, DNAHS and SNTN
Format: cell-based
Conditions: 10 μM DAPT in medium for Step 6 from Day 42, read on Day 56; versus Step 6 medium without DAPT
Procedure: On Day 42 (i.e., upon completion of Step 5), the medium in the lower layer of Cell Culture Inserts (Corning) was exchanged with the medium for Step 6, and the medium of the lower layer was selectively exchanged with another medium every other day.
The medium for Step 6 was prepared by supplementing the Pneumacult-ALI Maintenance Medium (STEMCELL Technologies) with 10 μM Y-27632.
On Day 6 (i.e., upon completion of Step 1), Day 14 (i.e., upon completion of Step 3), Day 28 (i.e., upon completion of Step 4), Day 42 (i.e., upon completion of Step 5), and Day 56 (i.e., upon completion of Step 6), expression levels of FOXJ1, DNAHS, and SNTN as marker genes specific to ciliated airway epithelial cells were analyzed via quantitative RT-PCR. Day 56 (+DAPT) represents the results of culture conducted in the medium for Step 6 supplemented with 10 μM DAPT from Day 42 (i.e., upon completion of Step 5). The measured values indicate the ratio of the cell expression levels to the amount of β-actin (AB) corrected with the expression levels in the human fetal trachea (F-trachea, 29-weeks pregnant, BioChain Institute).

C[C@H](NC(=O)Cc1cc(F)cc(F)c1)C(=O)N[C@H](C(=O)OC(C)(C)C)c1ccccc1 [DAPT, N-[2S-(3,5-difluorophenyl)acetyl]-L-alanyl-2-phenyl-1,1-dimethylethyl ester-glycine]
differentiation into ciliated airway epithelial cells (expression of FOXJ1, DNAHS, SNTN by qRT-PCR): further accelerated
